Laboratory results taken from ChEMBL document CHEMBL1201862, “PubChem BioAssay data set” (2004).
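Five compound concentrations were applied to cells in 96-well plates for 48 hours; endpoints were derived by simple linear interpolation of the resulting dose-response curve. GI50 marks 50% less growth.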 Calls of active or inactive are those of the source. No stated cut-off is given here; in the data, active = GI50 up to about 1.1 µM and inactive = higher.

Legend:
Assay in all cases: inhibition of tumour cell growth, NCI panel, 48 h
UACC-62 = system: UACC-62
KM12 = system: KM12
U-251 = system: U-251
ACHN = system: ACHN
NCI-H460 = system: NCI-H460
CCRF-CEM = system: CCRF-CEM
SR = system: SR
A498 = system: A498
HT-29 = system: HT-29
SN12C = system: SN12C
NCI-H226 = system: NCI-H226
SF-268 = system: SF-268
M14 = system: M14
SK-MEL-5 = system: SK-MEL-5
HOP-92 = system: HOP-92
A549 = system: A549
PC-3 = system: PC-3
MDA-N = system: MDA-N
MDA-MB-231 = system: MDA-MB-231
BT-549 = system: BT-549

Row | SMILES | GI50 (UACC-62) | GI50 (KM12) | GI50 (U-251) | GI50 (ACHN) | GI50 (NCI-H460) | GI50 (CCRF-CEM) | GI50 (SR) | GI50 (A498) | GI50 (HT-29) | GI50 (SN12C) | GI50 (NCI-H226) | GI50 (SF-268) | GI50 (M14) | GI50 (SK-MEL-5) | GI50 (HOP-92) | GI50 (A549) | GI50 (PC-3) | GI50 (MDA-N) | GI50 (MDA-MB-231) | GI50 (BT-549)
1 | O/N=C/c1ccc(O)c(O)c1 | 93.3 µM (inactive) | > 100 µM (inactive) | 61.7 µM (inactive) | 39.9 µM (inactive) | 77.4 µM (inactive) | 7.38 µM (inactive) | 37.2 µM (inactive) | > 100 µM (inactive) | > 100 µM (inactive) | > 100 µM (inactive) | > 100 µM (inactive) | > 100 µM (inactive) | 97.5 µM (inactive) | 62.8 µM (inactive) | > 100 µM (inactive) | > 100 µM (inactive) | – | – | – | –
2 | Cn1cc2ccccc2c1-c1nc(F)nc(Oc2ccc3c(c2)CC[C@@H]2C3CC[C@@]3(C)C2CC[C@@H]3O)n1 (some centres undefined) | 17.1 µM (inactive) | 11.4 µM (inactive) | 6.73 µM (inactive) | 17.7 µM (inactive) | 18.6 µM (inactive) | 3.08 µM (inactive) | 3.36 µM (inactive) | 20.5 µM (inactive) | 18.7 µM (inactive) | 7.87 µM (inactive) | 13.5 µM (inactive) | 9.53 µM (inactive) | 8.71 µM (inactive) | 12.8 µM (inactive) | 7.78 µM (inactive) | 24.8 µM (inactive) | – | – | – | –
3 | O=C1CCC2CCOc3ccc(O)c1c32 (centres undefined) | > 100 µM (inactive) | > 100 µM (inactive) | > 100 µM (inactive) | > 100 µM (inactive) | > 100 µM (inactive) | > 100 µM (inactive) | > 100 µM (inactive) | > 100 µM (inactive) | > 100 µM (inactive) | > 100 µM (inactive) | > 100 µM (inactive) | > 100 µM (inactive) | > 100 µM (inactive) | > 100 µM (inactive) | > 100 µM (inactive) | > 100 µM (inactive) | – | – | – | –
4 | CCCC1(CCC)c2cc(/C=N\O)ccc2-c2ccc(-c3ccc(C(C)(C)C)cc3)cc21 | – | 55.3 µM (inactive) | > 10 µM (inactive) | 41.9 µM (inactive) | 38.5 µM (inactive) | 29.2 µM (inactive) | 25.9 µM (inactive) | > 10 µM (inactive) | > 100 µM (inactive) | 23.1 µM (inactive) | – | 56 µM (inactive) | 50.2 µM (inactive) | 80.4 µM (inactive) | 64.9 µM (inactive) | 53.7 µM (inactive) | 59.6 µM (inactive) | 57.3 µM (inactive) | 19.5 µM (inactive) | –
5 | Cc1nc2ccc(Cl)cc2c2c1CCS2 | 99.8 µM (inactive) | > 100 µM (inactive) | > 100 µM (inactive) | 45.1 µM (inactive) | 52.2 µM (inactive) | 46 µM (inactive) | 40.9 µM (inactive) | 22 µM (inactive) | 41.8 µM (inactive) | 42 µM (inactive) | 51.6 µM (inactive) | 56.5 µM (inactive) | 71.3 µM (inactive) | 27.6 µM (inactive) | – | 67 µM (inactive) | 36.6 µM (inactive) | > 100 µM (inactive) | 49.2 µM (inactive) | –
6 | ClC1=C(Cl)C2OC3C=CCC3OC2C(Cl)=C1Cl (centres undefined) | – | 40.6 µM (inactive) | 52.8 µM (inactive) | 91 µM (inactive) | 40 µM (inactive) | 40.1 µM (inactive) | 35.3 µM (inactive) | > 100 µM (inactive) | 21.3 µM (inactive) | – | 95.3 µM (inactive) | 73.5 µM (inactive) | > 100 µM (inactive) | 29.5 µM (inactive) | 28.8 µM (inactive) | – | 39.7 µM (inactive) | 51.3 µM (inactive) | > 100 µM (inactive) | –
7 | Nc1nc(S)nc(C(=O)Nc2ccc(Cl)c(Cl)c2)c1-c1ccc(Cl)cc1 | > 100 µM (inactive) | > 100 µM (inactive) | > 100 µM (inactive) | > 100 µM (inactive) | > 100 µM (inactive) | > 100 µM (inactive) | 76.6 µM (inactive) | > 100 µM (inactive) | 71.4 µM (inactive) | > 100 µM (inactive) | > 100 µM (inactive) | > 100 µM (inactive) | 87.1 µM (inactive) | > 100 µM (inactive) | 93.1 µM (inactive) | > 100 µM (inactive) | – | – | – | –
8 | CS(=O)(=O)OCCN1CCN(C(=O)c2cccc3c(Nc4ccc(S(N)(=O)=O)cc4)c4ccccc4nc23)CC1 | > 100 µM (inactive) | > 100 µM (inactive) | > 100 µM (inactive) | > 100 µM (inactive) | > 100 µM (inactive) | > 44.1 µM (inactive) | > 100 µM (inactive) | > 100 µM (inactive) | > 100 µM (inactive) | > 100 µM (inactive) | > 100 µM (inactive) | > 100 µM (inactive) | > 100 µM (inactive) | > 100 µM (inactive) | > 100 µM (inactive) | > 100 µM (inactive) | – | – | – | –
9 | CCN(CC)CCN1CCN=C2c3cc(OC)ccc3Nc3c([N+](=O)[O-])ccc1c32 | 1 µM (active) | 1.15 µM (inactive) | – | – | – | 0.388 µM (active) | 0.221 µM (active) | – | 0.881 µM (active) | 0.667 µM (active) | – | 0.501 µM (active) | 1 µM (active) | 1.55 µM (inactive) | 2.21 µM (inactive) | 1.24 µM (inactive) | 0.697 µM (active) | 1.04 µM (active) | 0.671 µM (active) | –
10 | C(/COc1cccnc1)=N\NC1=NCCN1 | > 100 µM (inactive) | > 100 µM (inactive) | > 100 µM (inactive) | > 100 µM (inactive) | > 100 µM (inactive) | > 100 µM (inactive) | > 100 µM (inactive) | > 100 µM (inactive) | > 100 µM (inactive) | > 100 µM (inactive) | > 100 µM (inactive) | > 100 µM (inactive) | > 100 µM (inactive) | > 100 µM (inactive) | > 100 µM (inactive) | > 100 µM (inactive) | – | – | – | –
11 | CC(=O)c1c(O)ccc2c1c1c(n2C)C(=O)c2ccccc2C1=O | – | – | 4.63 µM (inactive) | – | 3.21 µM (inactive) | 3.69 µM (inactive) | 2.25 µM (inactive) | 2.84 µM (inactive) | > 100 µM (inactive) | – | – | 1.86 µM (inactive) | – | 3.29 µM (inactive) | – | 5.66 µM (inactive) | – | – | 2.52 µM (inactive) | > 100 µM (inactive)
12 | COC(=O)CC1C2CC3C(C2=O)C13 (centres undefined) | > 100 µM (inactive) | > 100 µM (inactive) | > 100 µM (inactive) | > 100 µM (inactive) | > 100 µM (inactive) | > 100 µM (inactive) | > 100 µM (inactive) | > 100 µM (inactive) | > 100 µM (inactive) | > 100 µM (inactive) | > 100 µM (inactive) | > 100 µM (inactive) | > 100 µM (inactive) | > 100 µM (inactive) | > 100 µM (inactive) | > 100 µM (inactive) | > 100 µM (inactive) | > 100 µM (inactive) | > 100 µM (inactive) | –
13 | COc1cc(Br)cc2cc(-c3cn4c(n3)sc3ccccc34)c(=O)oc12 | 22.6 µM (inactive) | 30.4 µM (inactive) | 25.2 µM (inactive) | 32 µM (inactive) | 33.7 µM (inactive) | 20.4 µM (inactive) | 21.6 µM (inactive) | 21.2 µM (inactive) | 29.5 µM (inactive) | 24.7 µM (inactive) | – | 20 µM (inactive) | 24.4 µM (inactive) | 28.4 µM (inactive) | 14.7 µM (inactive) | 36.5 µM (inactive) | 16.3 µM (inactive) | – | 21.2 µM (inactive) | 24.3 µM (inactive)
14 | C=CSCCC(N)C(=O)O (centres undefined) | > 100 µM (inactive) | > 100 µM (inactive) | > 100 µM (inactive) | > 100 µM (inactive) | > 100 µM (inactive) | > 100 µM (inactive) | > 100 µM (inactive) | > 100 µM (inactive) | > 100 µM (inactive) | > 100 µM (inactive) | > 100 µM (inactive) | > 100 µM (inactive) | > 100 µM (inactive) | > 100 µM (inactive) | > 100 µM (inactive) | > 100 µM (inactive) | – | – | – | –
15 | O=S(=O)(O)c1cc(/N=N/c2c(O)ccc3ccccc23)c2c(S(=O)(=O)O)cccc2c1 | > 100 µM (inactive) | > 100 µM (inactive) | > 100 µM (inactive) | > 100 µM (inactive) | > 100 µM (inactive) | > 100 µM (inactive) | > 100 µM (inactive) | – | > 100 µM (inactive) | – | > 100 µM (inactive) | > 100 µM (inactive) | > 100 µM (inactive) | > 100 µM (inactive) | > 100 µM (inactive) | > 100 µM (inactive) | > 100 µM (inactive) | – | > 100 µM (inactive) | > 100 µM (inactive)
16 | COC(=O)[C@@]12OC[C@]34C([C@@H](O)C1O)[C@@]1(C)CC(=O)C(O)=C(C)C1C[C@H]3OC(=O)[C@H](OC(=O)CC(C)C(F)(F)F)[C@H]42 (some centres undefined) | 0.00748 µM (active) | 0.0324 µM (active) | 0.0205 µM (active) | 0.0231 µM (active) | 0.00542 µM (active) | 0.012 µM (active) | 0.00429 µM (active) | 0.0214 µM (active) | 0.0133 µM (active) | 0.145 µM (active) | 0.0108 µM (active) | 0.0869 µM (active) | 0.0347 µM (active) | 0.0125 µM (active) | 0.00953 µM (active) | 0.0265 µM (active) | – | – | – | –
17 | CCN1/C(=C/C(C)=C/c2sc3ccccc3[n+]2CC)Sc2ccccc21 | 0.0927 µM (active) | 0.0641 µM (active) | 0.0378 µM (active) | 0.295 µM (active) | 0.0621 µM (active) | 0.0261 µM (active) | 0.181 µM (active) | 0.381 µM (active) | 0.307 µM (active) | 0.234 µM (active) | 0.0625 µM (active) | 0.447 µM (active) | 0.212 µM (active) | 0.0925 µM (active) | < 0.01 µM (active) | 0.0843 µM (active) | – | – | – | –
